In the oligonucleotide strings, read from the 5' end, every base follows the letter of its sugar. An asterisk marks phosphorothioate; unmarked linkages are phosphodiester. Other units and linkages are bracketed, terminal groups are in braces. A string of capitals states the bases alone. e = 2'-O-(2-methoxyethyl) (MOE); [5mC] = 5-methylcytosine; d = 2'-deoxy (DNA)
Legend:
PEPCK-c = PEPCK-c mRNA expression in HepG2 cells; assay type: cell-based, human; conditions: for decrease in PEPCK-c mRNA: HepG2, basal (no insulin), 100 nM; for PEPCKc mRNA expression: Experiment 2, insulin treated: HepG2 cells transfected with oligomeric compound, 1 nM insulin for four hours, UTC + 1 nM insulin = 100
Method: (§1) Approximately 28 hours after transfection, the cells are subjected to serum starvation for a period of 12 to 16 hours, using serum-free growth medium. Following serum starvation, cells are treated with 1 nM insulin (insulin-treated) or are left untreated (basal conditions) for approximately four hours. At the same time, untreated control cells in both plates are treated with 100 nM insulin to determine the maximal insulin response. Following insulin treatment (forty-eight hours after transfection), total RNA is harvested from all samples, and the amount of total RNA from each sample is determined using a Ribogreen assay (Invitrogen Corporation, Carlsbad, Calif.). Real-time PCR is performed on the total RNA samples using primer/probe sets for three insulin responsive genes: insulin-like growth factor binding protein-1 (IGFBP-1), cytosolic PEPCK (PEPCK-C), and follistatin. Gene expression levels obtained by real-time PCR are normalized for total RNA content in the samples.
(§2) Oligomeric compounds of the present invention were tested for their effects on insulin signaling in HepG2 cells. HepG2 cells were plated at 7500 cells/well in collagen coated 96-well plates. The following day, cells were transfected with oligomeric compounds targeting miRNAs using 100 nM oligomeric compound in LIPOFECTIN™ (Invitrogen Corporation, Carlsbad, Calif.) in two 96-well plates. The oligomeric compounds were tested in triplicate on each 96-well plate, except for positive and negative controls, which were measured up to six times per plate. At the end of transfection, the transfection medium was replaced by regular growth medium. Twenty-eight hours post-transfection, the cells were subjected to overnight (sixteen to eighteen hours) serum starvation using serum free growth medium. Forty-four hours post-transfection, the cells in the transfected wells were treated with either no insulin (“basal” Experiment 1, for identification of insulin-mimetic compounds) or with 1 nM insulin (“insulin treated” Experiment 2, for identification of insulin sensitizers) for four hours. At the same time, in both plates, cells in some of the un-transfected control wells are treated with 100 nM insulin to determine maximal insulin response. At the end of the insulin or no-insulin treatment (forty-eight hours post-transfection), total RNA is isolated from both the basal and insulin treated (1 nM) 96-well plates, and the amount of total RNA from each sample is determined using a Ribogreen assay (Molecular Probes, Eugene, Oreg.). Real-time PCR is performed on all the total RNA samples using primer/probe sets for three insulin responsive genes: PEPCK-c, IGFBP-1 and follistatin. Expression levels for each gene are normalized to total RNA, and values+standard deviation are expressed relative to the transfectant only untreated control (UTC) and negative control compounds.
(§3) Protocols for treatment of HepG2 cells and transfection of oligomeric compounds are as described in Example 18. Also as described in Example 18, forty-four hours post-transfection, the cells in the transfected wells were treated with either no insulin (“basal” Experiment 3 (below), for identification of insulin-mimetic compounds) or with 1 nM insulin (“insulin treated” Experiment 4 (below), for identification of insulin sensitizers) for four hours. At the same time, in both plates, cells in some of the un-transfected control wells are treated with 100 nM insulin to determine maximal insulin response. At the end of the insulin or no-insulin treatment (forty-eight hours post-transfection), total RNA is isolated from both the basal and insulin treated (1 nM) 96-well plates, and the amount of total RNA from each sample is determined using a Ribogreen assay (Molecular Probes, Eugene, Oreg.).

IGFBP-1 = IGFBP-1 mRNA expression in HepG2 cells; assay type: cell-based, human; conditions: for IGFBP1 mRNA expression: Experiment 2, insulin treated: HepG2 cells transfected with oligomeric compound, 1 nM insulin for four hours, UTC + 1 nM insulin = 100
Method: as §1, §2, §3

follistatin = experiment: Follistatin mRNA expression in HepG2 cells; assay type: cell-based, human; conditions: for Follistatin mRNA expression: Experiment 2, insulin treated: HepG2 cells transfected with oligomeric compound, 1 nM insulin for four hours, UTC + 1 nM insulin = 100
Method: as §1, §2, §3

[1] = system: BJ, B16-F10, T47D, T47Dp53 and HeLa cells; experiment: Cell cycle assay (propidium iodide flow cytometry), cell line panel; assay type: cell-based; conditions: 150 nM, 72 hours (Table 29)
[2] = Experiment 3, basal (no insulin), HepG2 cells, 48 hours post-transfection
[3] = Experiment 4, insulin-sensitization: HepG2 cells treated with 1 nM insulin for four hours, 48 h post-transfection, mRNA by real-time PCR
[4] = HepG2 cells, Experiment 1, basal (no insulin), four hours, UTC = 100

Substance | PEPCK-c (% UTC) (PEPCK-c; [2]) | PEPCK-c (% UTC) (PEPCK-c; [3]) | IGFBP-1 (% UTC) (IGFBP-1; [2]) | IGFBP-1 (% UTC) (IGFBP-1; [3]) | Follistatin (% UTC) (follistatin; [2]) | Follistatin (% UTC) (follistatin; [3]) | PEPCKc mRNA expression (PEPCK-c) | IGFBP1 mRNA expression (IGFBP-1) | Follistatin mRNA expression (follistatin) | further results
186515 (antisense eA*eG*eG*eT*eA*dG*d[5mC]*dT*dT*dT*dG*dA*dT*dT*dA*eT*eG*eT*eA*eA) [compound 186515] | 70 | 40 | 193 | 105 | 67 | 39 |  |  |  | 
GCTACCTGCACTGTAAGCACTTTT (chemistry not given here) [ISIS 327911, uniform 2′-MOE PS; targets mir-106] |  |  |  |  |  |  |  |  |  | decrease in PEPCK-c mRNA (PEPCK-c): 48%; percentage of cells in the G2/M phase [1]: increased percentage of cells in the G2/M phase
328764 (antisense eA*eG*eA*eT*eG*dT*dT*dT*d[5mC]*dT*dG*dG*d[5mC]*d[5mC]*dT*eG*e[5mC]*eG*eA*eG) [compound 328764] |  |  |  |  |  |  | 68 | 145 | 128 | 
328774 (antisense eG*e[5mC]*eA*e[5mC]*e[5mC]*d[5mC]*dG*d[5mC]*d[5mC]*dT*d[5mC]*dA*d[5mC]*dA*d[5mC]*eA*e[5mC]*eG*eT*eG) [compound 328774] |  |  |  |  |  |  | 77 | 100 | 68 | 
328765 (antisense eG*eA*e[5mC]*eA*eA*dA*d[5mC]*dT*d[5mC]*dA*dG*d[5mC]*dT*dA*dT*eA*eT*eT*eG*eT) [compound 328765] | 93 | 73 | 88 | 94 | 87 | 97 |  |  |  | 
ISIS 341805: SEQ ID NO: 762, targeting mir-184 (antisense ACCCTTATCAGTTCTCCGTCCA; all 2'-MOE, all phosphorothioate, methylation of C not given here) |  |  |  |  |  |  |  |  |  | decrease in PEPCK-c mRNA (PEPCK-c): 60%
341808 (antisense GAACUGCCUUUCUCUCCA; all 2'-MOE, all phosphorothioate, methylation of C and T or U not given here) [compound 341808] |  |  |  |  |  |  |  |  |  | PEPCKc mRNA (PEPCK-c; [4]): 64; IGFBP1 mRNA (IGFBP-1; [4]): 113; Follistatin mRNA (follistatin; [4]): 96
328779 (antisense eT*eG*eT*eT*eT*dG*dT*d[5mC]*dT*d[5mC]*d[5mC]*dA*dA*dG*dA*eA*eA*e[5mC]*eG*eT) [compound 328779] | 123 | 78 | 135 | 128 | 109 | 119 |  |  |  | 
328358 (eA*eG*eT*eT*eT*dG*dA*dA*dG*dT*dG*dT*d[5mC]*dA*d[5mC]*eA*eG*e[5mC]*eG*e[5mC]) [compound 328358] |  |  |  |  |  |  | 93 | 165 | 106 | 
328367 (eA*e[5mC]*eT*eG*eA*dG*dG*dG*d[5mC]*dG*dG*d[5mC]*d[5mC]*d[5mC]*dG*eG*eG*e[5mC]*eA*eG) [compound 328367] |  |  |  |  |  |  | 85 | 141 | 107 | 
340362 (antisense GACTGTTGAATCTCATGGCA; 5-10-5 gapmer, wing sugar and linkages not given here, further chemistry not given here) [compound 340362] | 168 | 104 | 157 | 129 | 123 | 119 |  |  |  | 
